Our source for the Ki values is paper PMC4102924 (Science translational medicine, 2013).

In the assay the target is PDK2 (pyruvate dehydrogenase kinase 2) (Homo sapiens, UniProt Q15119). In words: radiometric kinase assay with recombinant PDK2. It counts as biochemical.

With `O=C(O)CCCc1ccccc1` [phenylbutyrate], the Ki came to 330 ± 80 µM.
